According to ChEMBL document CHEMBL1681714, “Organelle-selective energy transfer: a fluorescent indicator of intracellular environment” (Bioorg Med Chem Lett, 2011):

Assays:
Conditions in all cases: 0.5 h
[1] = Drug uptake in rat Clone 9 cells assessed as localization to endoplasmic reticulum after 30 mins by fluorescence microscopy; type: ADME, cell-based
[2] = Drug uptake in rat Clone 9 cells assessed as accumulation in lysosomes after 30 mins by fluorescence microscopy; type: ADME, cell-based
[3] = Drug uptake in rat Clone 9 cells assessed as accumulation in endoplasmic reticulum after 30 mins by fluorescence microscopy; type: ADME, cell-based
[4] = Drug uptake in rat Clone 9 cells assessed as accumulation in cytoplasm after 30 mins by fluorescence microscopy; type: ADME, cell-based
[5] = Drug uptake in rat Clone 9 cells assessed as accumulation in mitochondria after 30 mins by fluorescence microscopy; type: ADME

Measured: Drug uptake

COc1ccccc1C1=[N+]2C(=C(c3ccc(C#Cc4ccc(C5=[N+]6C(=Cc7c(C)c(S(=O)(=O)[O-])c(C)n7[B-]6(F)F)C(=O)N5C)cc4)cc3OCC(=O)O)c3ccc(-c4ccccc4OC)n3[B-]2(F)F)C=C1.[Na+]
Active: [1] | [2] | [3]

COc1cc(C#Cc2ccc3c(c2)C(C)(C)C(/C=C/C=C2/N(CCCCCC(=O)O)c4ccccc4C2(C)C)=[N+]3C)ccc1C1=C2C(C)=CC(C)=[N+]2[B-](F)(F)n2c(C)cc(C)c21.[I-]
not listed: [3]
Active: all other assays above
